Measurements taken from US20210261570A1, “ANTIBIOTIC RESISTANCE BREAKERS” (KING'S COLLEGE LONDON, priority 2017, published 2021).
In brackets after ≈: the same amount, converted by molar mass. Like-named read-outs stand apart in the source and are kept apart here.

Tests used:
[1] = test system: Neisseria gonorrhoeae strains; assay type: cell-based
From the text: Untreated controls and blank wells were included.

[2] = test system: Safetyscreen44 panel
[3] = molecular target: Safetyscreen44 panel (Homo sapiens, UniProt P21728); settings: D1 (h) (antagonist radioligand)
Sequence of Safetyscreen44 panel (Homo sapiens, UniProt P21728) (P21728 whole entry): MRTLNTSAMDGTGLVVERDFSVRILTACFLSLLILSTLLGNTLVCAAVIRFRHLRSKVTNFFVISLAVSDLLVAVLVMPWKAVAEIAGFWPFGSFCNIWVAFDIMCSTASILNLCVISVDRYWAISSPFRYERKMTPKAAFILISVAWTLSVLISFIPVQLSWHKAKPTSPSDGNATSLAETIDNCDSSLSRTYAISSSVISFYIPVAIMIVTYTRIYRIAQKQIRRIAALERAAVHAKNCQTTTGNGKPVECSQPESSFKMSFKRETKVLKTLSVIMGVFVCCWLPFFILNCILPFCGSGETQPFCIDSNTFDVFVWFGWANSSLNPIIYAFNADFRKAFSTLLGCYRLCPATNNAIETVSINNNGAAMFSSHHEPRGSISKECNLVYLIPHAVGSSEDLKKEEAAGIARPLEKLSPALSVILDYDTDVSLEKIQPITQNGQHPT

Question: C[C@H]1COc2c(N3CC[C@@H](Nc4ncccn4)C3)c(F)cc3c(=O)c(C(=O)O)cn1c23 [KSN-82-L22] was tested. Which MIC ([1]; strain FDA-CDC AR-BANK#0176, resistance CIP-R PEN-R TET-R) did it give?
Answer: 2 µg/mL (≈ 4.7 µM)

Question: What about the MIC ([1]; strain FDA-CDC AR-BANK#0177, resistance CIP-S PEN-I TET-R) of the same compound?
Answer: ≤0.03125 µg/mL

Question: And the MIC ([1]; strain FDA-CDC AR-BANK#0178, resistance CIP-R PEN-R TET-R)?
Answer: 2 µg/mL (≈ 4.7 µM)

Question: What about the MIC ([1]; strain FDA-CDC AR-BANK#0179, resistance CIP-S PEN-S TET-I) of the same compound?
Answer: ≤0.03125 µg/mL

Question: And the MIC ([1]; strain FDA-CDC AR-BANK#0180, resistance CIP-R PEN-I TET-R)?
Answer: 2 µg/mL (≈ 4.7 µM)

Question: What about the MIC ([1]; strain FDA-CDC AR-BANK#0181, resistance CIP-S PEN-I TET-R) of the same compound?
Answer: ≤0.03125 µg/mL

Question: And the MIC ([1]; strain FDA-CDC AR-BANK#0182, resistance CIP-R PEN-I TET-R)?
Answer: 2 µg/mL (≈ 4.7 µM)

Question: And the MIC ([1]; strain FDA-CDC AR-BANK#0183, resistance CIP-R PEN-R TET-R)?
Answer: 2 µg/mL (≈ 4.7 µM)

Question: What about the MIC ([1]; strain FDA-CDC AR-BANK#0184, resistance CIP-R PEN-R TET-R) of the same compound?
Answer: 2 µg/mL (≈ 4.7 µM)

Question: What about the MIC ([1]; strain FDA-CDC AR-BANK#0185, resistance CIP-R PEN-I TET-R) of the same compound?
Answer: 2 µg/mL (≈ 4.7 µM)

Question: And the MIC ([1]; strain FDA-CDC AR-BANK#0186, resistance CIP-R PEN-R TET-R)?
Answer: 1 µg/mL (≈ 2.35 µM)

Question: What about the MIC ([1]; strain FDA-CDC AR-BANK#0187, resistance CIP-R PEN-I TET-R) of the same compound?
Answer: 2 µg/mL (≈ 4.7 µM)

Question: What about the MIC ([1]; strain FDA-CDC AR-BANK#0188, resistance CIP-R PEN-I TET-R) of the same compound?
Answer: 1 µg/mL (≈ 2.35 µM)

Question: And the MIC ([1]; strain FDA-CDC AR-BANK#0189, resistance CIP-R PEN-R TET-R)?
Answer: 2 µg/mL (≈ 4.7 µM)

Question: What about the MIC ([1]; strain FDA-CDC AR-BANK#0190, resistance CIP-R PEN-R TET-R) of the same compound?
Answer: 2 µg/mL (≈ 4.7 µM)

Question: And the MIC ([1]; strain FDA-CDC AR-BANK#0191, resistance CIP-R PEN-R TET-R)?
Answer: 2 µg/mL (≈ 4.7 µM)

Question: And the MIC ([1]; strain FDA-CDC AR-BANK#0192, resistance CIP-R PEN-R TET-R)?
Answer: 2 µg/mL (≈ 4.7 µM)

Question: And the MIC ([1]; strain FDA-CDC AR-BANK#0193, resistance CIP-S PEN-R TET-R)?
Answer: ≤0.03125 µg/mL

Question: And the MIC ([1]; strain FDA-CDC AR-BANK#0194, resistance CRO-NS CIP-S PEN-I TET-R)?
Answer: ≤0.03125 µg/mL

Question: What about the MIC ([1]; strain FDA-CDC AR-BANK#0195, resistance CIP-R PEN-I TET-R) of the same compound?
Answer: 2 µg/mL (≈ 4.7 µM)

Question: What about the MIC ([1]; strain FDA-CDC AR-BANK#0196, resistance CIP-R PEN-R TET-R) of the same compound?
Answer: 2 µg/mL (≈ 4.7 µM)

Question: What about the MIC ([1]; strain FDA-CDC AR-BANK#0197, resistance CIP-R PEN-I TET-I) of the same compound?
Answer: 2 µg/mL (≈ 4.7 µM)

Question: What about the MIC ([1]; strain FDA-CDC AR-BANK#0198, resistance CIP-R PEN-R TET-R) of the same compound?
Answer: 2 µg/mL (≈ 4.7 µM)

Question: What about the MIC ([1]; strain FDA-CDC AR-BANK#0199, resistance CIP-S PEN-R TET-R) of the same compound?
Answer: ≤0.03125 µg/mL

Question: And the MIC ([1]; strain FDA-CDC AR-BANK#0200, resistance CIP-R PEN-R TET-R)?
Answer: 2 µg/mL (≈ 4.7 µM)

Question: What about the MIC ([1]; strain FDA-CDC AR-BANK#0201, resistance CIP-R PEN-R TET-R) of the same compound?
Answer: 2 µg/mL (≈ 4.7 µM)

Question: And the MIC ([1]; strain FDA-CDC AR-BANK#0202, resistance CIP-S PEN-S TET-I)?
Answer: ≤0.03125 µg/mL

Question: What about the MIC ([1]; strain FDA-CDC AR-BANK#0203, resistance CIP-R PEN-R TET-R) of the same compound?
Answer: 2 µg/mL (≈ 4.7 µM)

Question: What about the MIC ([1]; strain FDA-CDC AR-BANK#0204, resistance CIP-R PEN-I TET-R) of the same compound?
Answer: 2 µg/mL (≈ 4.7 µM)

Question: And the MIC ([1]; strain FDA-CDC AR-BANK#0205, resistance CIP-R PEN-R TET-R)?
Answer: 2 µg/mL (≈ 4.7 µM)

Question: What about the MIC ([1]; strain FDA-CDC AR-BANK#0206, resistance CIP-R PEN-R TET-R) of the same compound?
Answer: 2 µg/mL (≈ 4.7 µM)

Question: What about the MIC ([1]; strain FDA-CDC AR-BANK#0207, resistance CIP-R PEN-R TET-R) of the same compound?
Answer: 2 µg/mL (≈ 4.7 µM)

Question: What about the MIC ([1]; strain FDA-CDC AR-BANK#0208, resistance CIP-R PEN-I TET-R) of the same compound?
Answer: 2 µg/mL (≈ 4.7 µM)

Question: And the MIC ([1]; strain FDA-CDC AR-BANK#0209, resistance CIP-R PEN-I TET-R)?
Answer: 2 µg/mL (≈ 4.7 µM)

Question: What about the MIC ([1]; strain FDA-CDC AR-BANK#0210, resistance CIP-R PEN-I TET-I) of the same compound?
Answer: 2 µg/mL (≈ 4.7 µM)

Question: What about the MIC ([1]; strain FDA-CDC AR-BANK#0211, resistance CIP-R PEN-R TET-R) of the same compound?
Answer: 2 µg/mL (≈ 4.7 µM)

Question: What about the MIC ([1]; strain FDA-CDC AR-BANK#0212, resistance CIP-R PEN-I TET-R) of the same compound?
Answer: 2 µg/mL (≈ 4.7 µM)

Question: And the MIC ([1]; strain FDA-CDC AR-BANK#0213, resistance CIP-R PEN-I TET-I)?
Answer: 1 µg/mL (≈ 2.35 µM)

Question: What about the MIC ([1]; strain FDA-CDC AR-BANK#0214, resistance CIP-R PEN-R TET-R) of the same compound?
Answer: 2 µg/mL (≈ 4.7 µM)

Question: And the MIC ([1]; strain NCTC 13817, resistance PEN-R TET-I)?
Answer: 0.5 µg/mL (≈ 1.18 µM)

Question: What about the MIC ([1]; strain NCTC 13818, resistance CIP-R OFX-R PEN-R TET-R) of the same compound?
Answer: 2 µg/mL (≈ 4.7 µM)

Question: What about the MIC ([1]; strain NCTC 13819, resistance FEP-NS CAZ-NS CIP-R OFX-R PEN-R TET-I) of the same compound?
Answer: 2 µg/mL (≈ 4.7 µM)

Question: And the MIC ([1]; strain NCTC 13820, resistance FEP-NS CFM-NS CAZ-NS CRO-NS CIP-R OFX-R PEN-R TET-R)?
Answer: 2 µg/mL (≈ 4.7 µM)

Question: And the MIC ([1]; strain NCTC 13821, resistance FEP-NS CFM-NS CAZ-NS CRO-NS CIP-R PEN-I TET-I)?
Answer: 2 µg/mL (≈ 4.7 µM)

Question: And the MIC ([1]; strain NCTC 13822, resistance FEP-NS CFM-NS CAZ-NS CIP-R OFX-R PEN-R TET-I)?
Answer: 2 µg/mL (≈ 4.7 µM)

Question: And the MIC ([1]; strain TCDC-NG08107, resistance PEN-R CFM-R CPD-R CIP-R)?
Answer: 2 µg/mL (≈ 4.7 µM)

Question: What about the “% inhibition” value ([2]; KV channel (antagonist radioligand)) of the same compound?
Answer: −4.644%

Question: And the “% inhibition” value ([2]; alpha 2A (h) (antagonist radioligand))?
Answer: 4.4791%

Question: And the “% inhibition” value [3]?
Answer: −15.4033%
